Assay results from ChEMBL document CHEMBL3885861, “Open TG-GATES”.

Species: Rattus norvegicus
Assay: Open TG-GATES - Regimen: Daily Repeat
Type: toxicity, organism-based, Sprague-Dawley
Set-up: regimen Daily Repeat, gender Male, age 6 weeks
Conditions: in vivo, po, 100 mg/kg, route gavage, dose level Low; for APTT / Bas / Eos / Fbg / Hb / Ht / Lym / MCH / MCHC / MCV / Mono / Neu / PT / Plat / RBC / Ret / WBC: tissue Blood; for KIDNEY_L / KIDNEY_R / KIDNEY_TOTAL: tissue Kidney; for LIVER: tissue Liver; for A/G / ALP / ALT / AST / BUN / CRE / Ca / Cl / DBIL / GLC / IP / K / LDH / Na / PL / RALB / TBIL / TC / TG / TP / gamma-GTP: tissue Plasma

COC1=CC(=O)C[C@@H](C)[C@]12Oc1c(Cl)c(OC)cc(OC)c1C2=O [GRISEOFULVIN]
TERMINAL_BW (72 h, time 3 day): 226.6 g
APTT (72 h, time 3 day): 19.6 s
Bas (72 h, time 3 day): 0%
Eos (72 h, time 3 day): 1%
Fbg (72 h, time 3 day): 220 mg/dL
Hb (72 h, time 3 day): 13.2 g/dL
Ht (72 h, time 3 day): 39.1%
Lym (72 h, time 3 day): 79.6%
MCH (72 h, time 3 day): 22.1 pg
MCHC (72 h, time 3 day): 33.8%
MCV (72 h, time 3 day): 65.4 fL
Mono (72 h, time 3 day): 2.4%
Neu (72 h, time 3 day): 16.4%
PT (72 h, time 3 day): 12.6 s
Plat (72 h, time 3 day): 116.4 x10_4/uL
RBC (72 h, time 3 day): 599.4 x10_4/ul
Ret (72 h, time 3 day): 7.5%
WBC (72 h, time 3 day): 97.1 x10_2/uL
KIDNEY_L (72 h, time 3 day): 1 g
KIDNEY_R (72 h, time 3 day): 1 g
KIDNEY_TOTAL (72 h, time 3 day): 2 g
LIVER (72 h, time 3 day): 11.2 g
A/G (72 h, time 3 day): 1.6
ALP (72 h, time 3 day): 947.8 IU/L
ALT (72 h, time 3 day): 35.8 IU/L
AST (72 h, time 3 day): 63 IU/L
BUN (72 h, time 3 day): 14.6 mg/dL
CRE (72 h, time 3 day): 0.4 mg/dL
Ca (72 h, time 3 day): 10.8 mg/dL
Cl (72 h, time 3 day): 103.8 meq/L
DBIL (72 h, time 3 day): 0.086 mg/dL
GLC (72 h, time 3 day): 213.6 mg/dL
IP (72 h, time 3 day): 7.9 mg/dL
K (72 h, time 3 day): 3.9 meq/L
LDH (72 h, time 3 day): 158.2 IU/L
Na (72 h, time 3 day): 140.8 meq/L
PL (72 h, time 3 day): 146 mg/dL
RALB (72 h, time 3 day): 3.4 g/dL
TBIL (72 h, time 3 day): 0.1 mg/dL
TC (72 h, time 3 day): 80.6 mg/dL
TG (72 h, time 3 day): 62.8 mg/dL
TP (72 h, time 3 day): 5.5 g/dL
gamma-GTP (72 h, time 3 day): 1.2 IU/L
TERMINAL_BW ([…], time 7 day): 262.3 g
TERMINAL_BW ([…], time 14 day): 308.3 g
TERMINAL_BW ([…], time 28 day): 393.4 g
APTT ([…], time 7 day): 19.8 s
Bas ([…], time 7 day): 0%
Eos ([…], time 7 day): 1%
Fbg ([…], time 7 day): 229.4 mg/dL
Hb ([…], time 7 day): 13.6 g/dL
Ht ([…], time 7 day): 40.4%
Lym ([…], time 7 day): 80.4%
MCH ([…], time 7 day): 21.3 pg
MCHC ([…], time 7 day): 33.8%
MCV ([…], time 7 day): 63 fL
Mono ([…], time 7 day): 2.2%
Neu ([…], time 7 day): 16%
PT ([…], time 7 day): 12.2 s
Plat ([…], time 7 day): 141.9 x10_4/uL
RBC ([…], time 7 day): 641.4 x10_4/ul
Ret ([…], time 7 day): 5.7%
WBC ([…], time 7 day): 131.1 x10_2/uL
APTT ([…], time 14 day): 20.1 s
Bas ([…], time 14 day): 0%
Eos ([…], time 14 day): 1%
Fbg ([…], time 14 day): 225.6 mg/dL
Hb ([…], time 14 day): 14.2 g/dL
Ht ([…], time 14 day): 42.2%
Lym ([…], time 14 day): 78%
MCH ([…], time 14 day): 20.4 pg
MCHC ([…], time 14 day): 33.7%
MCV ([…], time 14 day): 60.6 fL
Mono ([…], time 14 day): 3.2%
Neu ([…], time 14 day): 17.2%
PT ([…], time 14 day): 12.3 s
Plat ([…], time 14 day): 129.7 x10_4/uL
RBC ([…], time 14 day): 696.2 x10_4/ul
Ret ([…], time 14 day): 2.8%
WBC ([…], time 14 day): 131.1 x10_2/uL
APTT ([…], time 28 day): 21.2 s
Bas ([…], time 28 day): 0%
Eos ([…], time 28 day): 1%
Fbg ([…], time 28 day): 219.6 mg/dL
Hb ([…], time 28 day): 15 g/dL
Ht ([…], time 28 day): 44.1%
Lym ([…], time 28 day): 81.8%
MCH ([…], time 28 day): 19.5 pg
MCHC ([…], time 28 day): 34%
MCV ([…], time 28 day): 57.2 fL
Mono ([…], time 28 day): 2.2%
Neu ([…], time 28 day): 14.8%
PT ([…], time 28 day): 12.5 s
Plat ([…], time 28 day): 121.1 x10_4/uL
RBC ([…], time 28 day): 772 x10_4/ul
Ret ([…], time 28 day): 2.7%
WBC ([…], time 28 day): 138.9 x10_2/uL
KIDNEY_L ([…], time 7 day): 1.1 g
KIDNEY_R ([…], time 7 day): 1.1 g
KIDNEY_TOTAL ([…], time 7 day): 2.3 g
KIDNEY_L ([…], time 14 day): 1.2 g
KIDNEY_R ([…], time 14 day): 1.2 g
KIDNEY_TOTAL ([…], time 14 day): 2.4 g
KIDNEY_L ([…], time 28 day): 1.4 g
KIDNEY_R ([…], time 28 day): 1.4 g
KIDNEY_TOTAL ([…], time 28 day): 2.9 g
LIVER ([…], time 7 day): 12.7 g
LIVER ([…], time 14 day): 13.7 g
LIVER ([…], time 28 day): 16.7 g
A/G ([…], time 7 day): 1.5
ALP ([…], time 7 day): 865.8 IU/L
ALT ([…], time 7 day): 36.2 IU/L
AST ([…], time 7 day): 62.2 IU/L
BUN ([…], time 7 day): 15.4 mg/dL
CRE ([…], time 7 day): 0.4 mg/dL
Ca ([…], time 7 day): 10.7 mg/dL
Cl ([…], time 7 day): 103.8 meq/L
DBIL ([…], time 7 day): 0.08 mg/dL
GLC ([…], time 7 day): 206.2 mg/dL
IP ([…], time 7 day): 7.1 mg/dL
K ([…], time 7 day): 3.8 meq/L
LDH ([…], time 7 day): 162.6 IU/L
Na ([…], time 7 day): 142 meq/L
PL ([…], time 7 day): 135.2 mg/dL
RALB ([…], time 7 day): 3.4 g/dL
TBIL ([…], time 7 day): 0.1 mg/dL
TC ([…], time 7 day): 75.4 mg/dL
TG ([…], time 7 day): 75 mg/dL
TP ([…], time 7 day): 5.7 g/dL
gamma-GTP ([…], time 7 day): 1 IU/L
A/G ([…], time 14 day): 1.5
ALP ([…], time 14 day): 701.8 IU/L
ALT ([…], time 14 day): 35.2 IU/L
AST ([…], time 14 day): 57.4 IU/L
BUN ([…], time 14 day): 15.2 mg/dL
CRE ([…], time 14 day): 0.5 mg/dL
Ca ([…], time 14 day): 10.6 mg/dL
Cl ([…], time 14 day): 103.2 meq/L
DBIL ([…], time 14 day): 0.1 mg/dL
GLC ([…], time 14 day): 215.2 mg/dL
IP ([…], time 14 day): 7.4 mg/dL
K ([…], time 14 day): 4.1 meq/L
LDH ([…], time 14 day): 171.8 IU/L
Na ([…], time 14 day): 140.6 meq/L
PL ([…], time 14 day): 138.8 mg/dL
RALB ([…], time 14 day): 3.5 g/dL
TBIL ([…], time 14 day): 0.2 mg/dL
TC ([…], time 14 day): 72.6 mg/dL
TG ([…], time 14 day): 92.4 mg/dL
TP ([…], time 14 day): 5.8 g/dL
gamma-GTP ([…], time 14 day): 1 IU/L
A/G ([…], time 28 day): 1.3
ALP ([…], time 28 day): 684.6 IU/L
ALT ([…], time 28 day): 31 IU/L
AST ([…], time 28 day): 55.8 IU/L
BUN ([…], time 28 day): 16 mg/dL
CRE ([…], time 28 day): 0.5 mg/dL
Ca ([…], time 28 day): 10.3 mg/dL
Cl ([…], time 28 day): 104.2 meq/L
DBIL ([…], time 28 day): 0.086 mg/dL
GLC ([…], time 28 day): 235.8 mg/dL
IP ([…], time 28 day): 6.4 mg/dL
K ([…], time 28 day): 3.5 meq/L
LDH ([…], time 28 day): 162.2 IU/L
Na ([…], time 28 day): 141.4 meq/L
PL ([…], time 28 day): 120.4 mg/dL
RALB ([…], time 28 day): 3.4 g/dL
TBIL ([…], time 28 day): 0.1 mg/dL
TC ([…], time 28 day): 66.2 mg/dL
TG ([…], time 28 day): 82 mg/dL
TP ([…], time 28 day): 6 g/dL
gamma-GTP ([…], time 28 day): 0.8 IU/L
